Data taken from ChEMBL document CHEMBL4706583, “2-Anilinoquinoline based arylamides as broad spectrum anticancer agents with B-RAF/C-RAF kinase inhibitory effects: Design, synthesis, in vitro cell-based and oncogenic kinase assessments” (Eur J Med Chem, 2020).
Calls of active or inactive are those of the source. The calls are words filed in the database; no cut-off is given here.

Legend:
UACC-257 = assay: Growth inhibition of human UACC-257 cells measured after 48 hrs by SRB assay; type: functional
HCT-116 [1] = assay: Growth inhibition of human HCT-116 cells measured after 48 hrs by SRB assay; type: functional
HCT-116 [2] = assay: Induction of apoptosis in human HCT-116 cells assessed as viable cells at 1.25 uM measured after 48 hrs by Annexin-V Alexa Fluor488/propidium iodide staining based flow cytometry (reference value: 82.3%); type: functional; conditions: read-out: Activity
RXF 393 = assay: Growth inhibition of human RXF 393 cells measured after 48 hrs by SRB assay; type: functional
HOP-92 = assay: Growth inhibition of human HOP-92 cells measured after 48 hrs by SRB assay; type: functional; conditions: for CC50: read-out: LC50 (the source's name)
KM12 = assay: Growth inhibition of human KM12 cells measured after 48 hrs by SRB assay; type: functional
UO-31 = assay: Growth inhibition of human UO-31 cells measured after 48 hrs by SRB assay; type: functional
ACHN = assay: Growth inhibition of human ACHN cells measured after 48 hrs by SRB assay; type: functional
HCT-116 [3] = assay: Induction of apoptosis in human HCT-116 cells assessed as viable cells at 5 uM measured after 48 hrs by Annexin-V Alexa Fluor488/propidium iodide staining based flow cytometry (reference value: 82.3%); type: functional; conditions: read-out: Activity
EKVX = assay: Growth inhibition of human EKVX cells measured after 48 hrs by SRB assay; type: functional
Sus scrofa = species on record: Sus scrofa; assay: Induction of porcine brain tubulin polymerization at 10 uM measured at 30 secs interval for 60 mins by fluorescence assay; type: tissue-based
BT-549 = assay: Growth inhibition of human BT-549 cells measured after 48 hrs by SRB assay; type: functional
[4] = Cytotoxicity against African green monkey Vero cells assessed as cell viability at 1 uM measured after 48 hrs by EZ-Cytox assay relative to control; type: cell-based; conditions: chlorocebus sabaeus, read-out: Activity
[5] = target: Serine/threonine-protein kinase B-raf (Homo sapiens, UniProt P15056, V600E); assay: Inhibition of human BRAF V600E mutant using MEK1 (K97R) as substrate in presence of [gamma-33P]ATP by scintillation counting method
SN12C = assay: Growth inhibition of human SN12C cells measured after 48 hrs by SRB assay; type: functional
HCT-116 [6] = assay: Induction of apoptosis in human HCT-116 cells assessed as early apoptotic cells at 5 uM measured after 48 hrs by Annexin-V Alexa Fluor488/propidium iodide staining based flow cytometry (reference value: 7.7%); type: functional
CAKI-1 = assay: Growth inhibition of human CAKI-1 cells measured after 48 hrs by SRB assay; type: functional
NCI-H226 = assay: Growth inhibition of human NCI-H226 cells measured after 48 hrs by SRB assay; type: functional
LOX IMVI [7] = assay: Growth inhibition of human LOX IMVI cells at 10 uM measured after 48 hrs by SRB assay relative to control; type: functional; conditions: read-out: GI
[8] = target: High affinity nerve growth factor receptor (Homo sapiens, UniProt P04629); assay: Inhibition of human TRKA using poly[Glu:Tyr] (4:1) as substrate in presence of [gamma-33P]ATP by scintillation counting method
NCI-H23 = assay: Growth inhibition of human NCI-H23 cells measured after 48 hrs by SRB assay; type: functional
MDA-MB-468 = assay: Growth inhibition of human MDA-MB-468 cells measured after 48 hrs by SRB assay; type: functional
SR = assay: Growth inhibition of human SR cells measured after 48 hrs by SRB assay; type: functional
MDA-MB-231 = assay: Growth inhibition of human MDA-MB-231 cells measured after 48 hrs by SRB assay; type: functional
MOLT-4 = assay: Growth inhibition of human MOLT-4 cells measured after 48 hrs by SRB assay; type: functional
SF-268 = assay: Growth inhibition of human SF-268 cells measured after 48 hrs by SRB assay; type: functional
[9] = tested on: Panel NCI-60 (60 carcinoma cell lines); assay: Growth inhibition of human Panel NCI-60 (60 carcinoma cell lines) cells at 10 uM measured after 48 hrs by SRB assay relative to control; type: functional; conditions: read-out: GI
HCC 2998 = assay: Growth inhibition of human HCC 2998 cells measured after 48 hrs by SRB assay; type: functional
OVCAR-8 = assay: Growth inhibition of human OVCAR-8 cells measured after 48 hrs by SRB assay; type: functional
[10] = Cytotoxicity against African green monkey Vero cells assessed as cell viability at 10 uM measured after 48 hrs by EZ-Cytox assay relative to control; type: cell-based; conditions: chlorocebus sabaeus, read-out: Activity
HCT-116 [11] = assay: Induction of apoptosis in human HCT-116 cells assessed as necrotic cells at 1.25 uM measured after 48 hrs by Annexin-V Alexa Fluor488/propidium iodide staining based flow cytometry (reference value: 7.7%); type: functional
DU-145 = assay: Growth inhibition of human DU-145 cells measured after 48 hrs by SRB assay; type: functional
HCT-116 [12] = assay: Induction of apoptosis in human HCT-116 cells assessed as early apoptotic cells at 5 uM measured after 24 hrs by Annexin-V Alexa Fluor488/propidium iodide staining based flow cytometry (reference value: 6.3%); type: functional
MDA-MB-435 = assay: Growth inhibition of human MDA-MB-435 cells measured after 48 hrs by SRB assay; type: functional
HCT-116 [13] = assay: Induction of apoptosis in human HCT-116 cells assessed as necrotic cells at 5 uM measured after 24 hrs by Annexin-V Alexa Fluor488/propidium iodide staining based flow cytometry (reference value: 4.6%); type: functional
U-251 = assay: Growth inhibition of human U-251 cells measured after 48 hrs by SRB assay; type: functional
SK-MEL-28 = assay: Growth inhibition of human SK-MEL-28 cells measured after 48 hrs by SRB assay; type: functional
HCT-116 [14] = assay: Induction of apoptosis in human HCT-116 cells assessed as late apoptotic cells at 2.5 uM measured after 24 hrs by Annexin-V Alexa Fluor488/propidium iodide staining based flow cytometry (reference value: 1%); type: functional
LOX IMVI [15] = assay: Growth inhibition of human LOX IMVI cells measured after 48 hrs by SRB assay; type: functional; conditions: for CC50: read-out: LC50 (the source's name)
SF-539 = assay: Growth inhibition of human SF-539 cells measured after 48 hrs by SRB assay; type: functional
K562 = assay: Growth inhibition of human K562 cells measured after 48 hrs by SRB assay; type: functional
NCI-H522 = assay: Growth inhibition of human NCI-H522 cells measured after 48 hrs by SRB assay; type: functional
HCT-116 [16] = assay: Induction of apoptosis in human HCT-116 cells assessed as late apoptotic cells at 5 uM measured after 48 hrs by Annexin-V Alexa Fluor488/propidium iodide staining based flow cytometry (reference value: 2.2%); type: functional

Chain of Serine/threonine-protein kinase B-raf (P15056 2-766 V600E limits assumed): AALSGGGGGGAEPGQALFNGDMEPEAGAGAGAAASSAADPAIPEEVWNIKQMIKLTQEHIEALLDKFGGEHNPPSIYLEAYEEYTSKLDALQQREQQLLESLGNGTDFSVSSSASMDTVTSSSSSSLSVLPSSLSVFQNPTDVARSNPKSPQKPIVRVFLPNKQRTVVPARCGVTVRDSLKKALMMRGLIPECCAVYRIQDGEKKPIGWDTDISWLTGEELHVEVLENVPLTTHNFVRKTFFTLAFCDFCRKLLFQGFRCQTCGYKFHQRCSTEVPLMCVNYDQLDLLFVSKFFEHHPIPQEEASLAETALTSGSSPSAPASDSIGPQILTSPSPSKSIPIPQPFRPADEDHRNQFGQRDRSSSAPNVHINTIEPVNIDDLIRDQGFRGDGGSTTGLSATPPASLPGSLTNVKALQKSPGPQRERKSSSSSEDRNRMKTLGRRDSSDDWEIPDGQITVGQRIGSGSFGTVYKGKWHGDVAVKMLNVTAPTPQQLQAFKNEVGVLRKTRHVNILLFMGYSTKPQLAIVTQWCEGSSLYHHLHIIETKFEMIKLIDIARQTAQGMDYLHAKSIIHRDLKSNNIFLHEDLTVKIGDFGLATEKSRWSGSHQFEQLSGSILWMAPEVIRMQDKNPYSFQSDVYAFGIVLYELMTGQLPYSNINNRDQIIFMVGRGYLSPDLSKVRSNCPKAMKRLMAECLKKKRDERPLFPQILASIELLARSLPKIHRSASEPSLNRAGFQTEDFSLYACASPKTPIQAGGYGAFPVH
Chain of High affinity nerve growth factor receptor (P04629 whole entry): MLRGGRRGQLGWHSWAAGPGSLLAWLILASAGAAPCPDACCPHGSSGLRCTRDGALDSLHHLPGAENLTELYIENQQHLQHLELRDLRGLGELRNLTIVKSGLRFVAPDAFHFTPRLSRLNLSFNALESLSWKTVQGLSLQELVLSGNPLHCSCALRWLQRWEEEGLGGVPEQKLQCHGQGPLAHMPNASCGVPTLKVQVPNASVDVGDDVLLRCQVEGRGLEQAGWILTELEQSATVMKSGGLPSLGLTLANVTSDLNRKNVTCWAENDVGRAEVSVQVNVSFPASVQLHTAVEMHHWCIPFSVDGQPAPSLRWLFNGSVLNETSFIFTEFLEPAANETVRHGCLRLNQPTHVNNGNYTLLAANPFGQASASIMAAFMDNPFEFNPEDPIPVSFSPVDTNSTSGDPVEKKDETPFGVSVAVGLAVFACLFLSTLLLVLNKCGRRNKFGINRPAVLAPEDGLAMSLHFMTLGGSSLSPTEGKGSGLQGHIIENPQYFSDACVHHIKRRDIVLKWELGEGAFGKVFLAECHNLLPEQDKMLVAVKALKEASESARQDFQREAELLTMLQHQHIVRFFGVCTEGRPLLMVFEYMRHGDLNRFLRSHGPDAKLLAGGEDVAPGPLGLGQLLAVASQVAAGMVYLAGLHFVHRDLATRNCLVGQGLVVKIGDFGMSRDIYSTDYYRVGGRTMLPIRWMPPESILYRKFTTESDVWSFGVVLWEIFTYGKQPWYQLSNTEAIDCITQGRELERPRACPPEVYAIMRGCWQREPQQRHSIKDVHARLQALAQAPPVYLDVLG

Compound `CCN1CCN(c2cc(C(=O)Nc3cccc(Nc4ccc5c(OC)cccc5n4)c3)cc(C(F)(F)F)c2)CC1` has a GI50 (UACC-257) of 1020 nM, a GI50 (HCT-116 [1]) of 872 nM and an LC50 (HCT-116 [1]) of 12400 nM. It also gave a TGI (HCT-116 [1]) of 3540 nM, a viability at 1.25 µM (HCT-116 [2]) of 82.7% and a GI50 (RXF 393) of 918 nM. The GI50 (HOP-92) was 1260 nM, the TGI (HOP-92) was 4660 nM and the CC50 (HOP-92) was 16600 nM. The GI50 (KM12) was 1710 nM, the GI50 (UO-31) was 746 nM and the LC50 (concentration killing 50% of cells) (UO-31) was 12400 nM. The TGI (UO-31) was 3880 nM, the GI50 (ACHN) was 1210 nM and the viability at 5 µM (HCT-116 [3]) was 72%. For the same compound, the GI50 (EKVX) was 3070 nM, the Activity (Sus scrofa) was “Active” and the GI50 (BT-549) was 3780 nM. For the same compound, the viability at 48 h, 1 µM [4] was 81.5%, the IC50 [5] was 888 nM and the GI50 (SN12C) was 1390 nM. For the same compound, the Activity (HCT-116 [6]) was 26.8%, the GI50 (CAKI-1) was 917 nM and the GI50 (NCI-H226) was 2850 nM. It also gave an inhibition of growth at 10 µM (LOX IMVI [7]) of 194%, an IC50 [8] of 1670 nM and a GI50 (NCI-H23) of 3410 nM. For the same compound, the GI50 (MDA-MB-468) was 749 nM, the LC50 (MDA-MB-468) was 14600 nM and the TGI (MDA-MB-468) was 4050 nM. It also gave a GI50 (SR) of 883 nM, a GI50 (MDA-MB-231) of 1800 nM and a GI50 (MOLT-4) of 616 nM. It also gave a GI50 (SF-268) of 1760 nM, an inhibition of growth at 10 µM [9] of 95% and a GI50 (HCC 2998) of 720 nM. It also gave a GI50 (OVCAR-8) of 1970 nM, a viability at 48 h, 10 µM [10] of 74.1% and an Activity (HCT-116 [11]) of 0.3%. It also gave a GI50 (DU-145) of 1880 nM, an Activity (HCT-116 [12]) of 19.3% and a GI50 (MDA-MB-435) of 1160 nM. For the same compound, the Activity (HCT-116 [13]) was 0.6%, the GI50 (U-251) was 1360 nM and the GI50 (SK-MEL-28) was 846 nM. The Activity (HCT-116 [14]) was 0.9%, the GI50 (LOX IMVI [15]) was 780 nM and the TGI (LOX IMVI [15]) was 1960 nM. For the same compound, the CC50 (LOX IMVI [15]) was 7040 nM, the GI50 (SF-539) was 3280 nM and the GI50 (K562) was 910 nM. The GI50 (NCI-H522) was 1010 nM and the Activity (HCT-116 [16]) was 0.6%.
In the case of `COc1cccc2nc(Nc3cccc(NC(=O)c4ccc(N5CCN(C)CC5)c(C(F)(F)F)c4)c3)ccc12`, the GI50 (UACC-257) is reported as 1360 nM, the GI50 (HCT-116 [1]) is reported as 868 nM and the LC50 (HCT-116 [1]) is reported as 4100 nM. The TGI (HCT-116 [1]) was 1890 nM, the viability at 1.25 µM (HCT-116 [2]) was 81.7% and the GI50 (RXF 393) was 802 nM. It also gave a GI50 (HOP-92) of 854 nM, a TGI (HOP-92) of 4030 nM and a CC50 (HOP-92) of 18800 nM. It also gave a GI50 (KM12) of 1090 nM, a GI50 (UO-31) of 734 nM and an LC50 (concentration killing 50% of cells) (UO-31) of 3040 nM. It also gave a TGI (UO-31) of 1490 nM, a GI50 (ACHN) of 1530 nM and a viability at 5 µM (HCT-116 [3]) of 61.5%. For the same compound, the GI50 (EKVX) was 1830 nM, the Activity (Sus scrofa) was “Active” and the GI50 (BT-549) was 2790 nM. The viability at 48 h, 1 µM [4] was 86.5%, the IC50 [5] was 1460 nM and the GI50 (SN12C) was 1700 nM. The Activity (HCT-116 [6]) was 29.6%, the GI50 (CAKI-1) was 1120 nM and the GI50 (NCI-H226) was 2260 nM. For the same compound, the inhibition of growth at 10 µM (LOX IMVI [7]) was 197%, the IC50 [8] was 34000 nM and the GI50 (NCI-H23) was 2930 nM. For the same compound, the GI50 (MDA-MB-468) was 1110 nM, the LC50 (MDA-MB-468) was 18400 nM and the TGI (MDA-MB-468) was 3650 nM. For the same compound, the GI50 (SR) was 1130 nM, the GI50 (MDA-MB-231) was 1550 nM and the GI50 (MOLT-4) was 876 nM. For the same compound, the GI50 (SF-268) was 1500 nM, the inhibition of growth at 10 µM [9] was 86.8% and the GI50 (HCC 2998) was 950 nM. It also gave a GI50 (OVCAR-8) of 1690 nM, a viability at 48 h, 10 µM [10] of 77.1% and an Activity (HCT-116 [11]) of 2.7%. It also gave a GI50 (DU-145) of 1810 nM, an Activity (HCT-116 [12]) of 7.9% and a GI50 (MDA-MB-435) of 878 nM. It also gave an Activity (HCT-116 [13]) of 4.8%, a GI50 (U-251) of 885 nM and a GI50 (SK-MEL-28) of 896 nM. The Activity (HCT-116 [14]) was 4.1%, the GI50 (LOX IMVI [15]) was 873 nM and the TGI (LOX IMVI [15]) was 1570 nM. It also gave a CC50 (LOX IMVI [15]) of 2830 nM, a GI50 (SF-539) of 895 nM and a GI50 (K562) of 1100 nM. The GI50 (NCI-H522) was 1040 nM and the Activity (HCT-116 [16]) was 5.4%.
